In brackets after ≈: the same amount, converted by molar mass. Activity calls are given as the source filed them. The calls are words filed in the database; no cut-off is given here.
Key:
Saccharomyces cerevisiae [1] = experiment: Antimicrobial activity against Saccharomyces cerevisiae expressing msh2 mutant gene assessed as increase in sensitivity measured as survival at 20 umol/L by spectrophotometry relative to wild type; assay type: functional
Saccharomyces cerevisiae [2] = experiment: Antimicrobial activity against Saccharomyces cerevisiae expressing ydj1 mutant gene assessed as sensitivity at 50 umol/L by spectrophotometry; assay type: functional, organism-based
Saccharomyces cerevisiae [3] = experiment: Antimicrobial activity against Saccharomyces cerevisiae expressing snf2 mutant gene assessed as sensitivity at 50 umol/L by spectrophotometry; assay type: functional, organism-based
Saccharomyces cerevisiae [4] = experiment: Antimicrobial activity against Saccharomyces cerevisiae expressing msh2 mutant gene assessed as sensitivity at 50 umol/L by spectrophotometry; assay type: functional, organism-based
Saccharomyces cerevisiae [5] = experiment: Antimicrobial activity against Saccharomyces cerevisiae expressing rad52 mutant gene assessed as sensitivity at 50 umol/L by spectrophotometry; assay type: functional, organism-based
Saccharomyces cerevisiae [6] = experiment: Antimicrobial activity against wild type Saccharomyces cerevisiae assessed as sensitivity at 50 umol/L by spectrophotometry; assay type: functional, organism-based
Saccharomyces cerevisiae [7] = experiment: Antimicrobial activity against Saccharomyces cerevisiae expressing ydj1 mutant gene assessed as sensitivity at 20 umol/L by spectrophotometry; assay type: functional, organism-based
Saccharomyces cerevisiae [8] = experiment: Antimicrobial activity against Saccharomyces cerevisiae expressing msh2 mutant gene assessed as sensitivity at 20 umol/L by spectrophotometry; assay type: functional, organism-based
Saccharomyces cerevisiae [9] = experiment: Antimicrobial activity against Saccharomyces cerevisiae expressing snf2 mutant gene assessed as increase in sensitivity at 20 umol/L by spectrophotometry relative to wild type; assay type: functional
Saccharomyces cerevisiae [10] = experiment: Antimicrobial activity against Saccharomyces cerevisiae expressing rad52 mutant gene assessed as increase in sensitivity at 20 umol/L by spectrophotometry relative to wild type; assay type: functional
[11] = Selectivity index, ratio of TC50 for african green monkey Vero cells to MIC for Aspergillus fumigatus ATCC 204305; assay type: toxicity, cell-based; details: read-out: Selectivity Index
Cryptococcus neoformans [12] = experiment: Antimicrobial activity against Cryptococcus neoformans ATCC 90113 by Alamar blue method; assay type: functional, organism-based
Nakaseomyces glabratus [13] = experiment: Antimicrobial activity against Candida glabrata at 20 ug/ml by Alamar blue method; assay type: functional, organism-based
Nakaseomyces glabratus [14] = experiment: Antimicrobial activity against Candida glabrata by Alamar blue method; assay type: functional, organism-based
Pichia kudriavzevii [15] = experiment: Antimicrobial activity against Candida krusei ATCC 6258 by Alamar blue method; assay type: functional, organism-based
Vero = experiment: Cytotoxicity against african green monkey Vero cells at 10 ug/ml after 48 hrs by Neutral Red dye assay; assay type: cell-based; details: chlorocebus sabaeus
Candida albicans = experiment: Antimicrobial activity against Candida albicans ATCC 90028 by Alamar blue method; assay type: functional, organism-based
Saccharomyces cerevisiae [16] = experiment: Antimicrobial activity against Saccharomyces cerevisiae expressing ydj1 mutant gene assessed as increase in sensitivity at 20 umol/L by spectrophotometry relative to wild type; assay type: functional
Saccharomyces cerevisiae [17] = experiment: Antimicrobial activity against Saccharomyces cerevisiae expressing msh2 mutant gene assessed as increase in sensitivity at 20 umol/L by spectrophotometry relative to wild type; assay type: functional
Saccharomyces cerevisiae [18] = experiment: Antimicrobial activity against wild type Saccharomyces cerevisiae assessed as increase in sensitivity measured as survival at 20 umol/L by spectrophotometry relative to control; assay type: functional
Pichia kudriavzevii [19] = experiment: Ratio of fluconazole MFC to compound MFC for Candida krusei ATCC 6258 by Alamar blue method; assay type: functional
Pichia kudriavzevii [20] = experiment: Ratio of amphotericin B IC50 to compound IC50 for Candida krusei ATCC 6258 by Alamar blue method; assay type: functional
Cryptococcus neoformans [21] = experiment: Ratio of amphotericin B IC50 to compound IC50 for Cryptococcus neoformans ATCC 90113 by Alamar blue method; assay type: functional
[22] = system: Mycobacterium intracellulare; experiment: Antimicrobial activity against Mycobacterium intracellulare ATCC 23068 by Alamar blue method; assay type: functional, organism-based
Staphylococcus aureus [23] = experiment: Antimicrobial activity against methicillin-resistant Staphylococcus aureus ATCC 33591 by Alamar blue method; assay type: functional, organism-based
Staphylococcus aureus [24] = experiment: Antimicrobial activity against Staphylococcus aureus ATCC 29213 by Alamar blue method; assay type: functional, organism-based; details: Staphylococcus aureus, ATCC 29213; for IC50: read-out: IC50
[25] = Selectivity index, ratio of TC50 for african green monkey Vero cells to IC50 for Cryptococcus neoformans ATCC 90113; assay type: toxicity, cell-based; details: read-out: Selectivity Index
[26] = Cytotoxicity against african green monkey Vero cells after 48 hrs by Neutral Red dye assay; assay type: cell-based; details: chlorocebus sabaeus, read-out: TC50
Aspergillus fumigatus = experiment: Antimicrobial activity against Aspergillus fumigatus ATCC 204305 by Alamar blue method; assay type: functional, organism-based
in vitro = details: monkey, Vero cells
Description: Selectivity index, ratio of TC50 for african green monkey Vero cells to IC50 for Aspergillus fumigatus ATCC 204305

Nakaseomyces glabratus [27] = experiment: Ratio of fluconazole MFC to compound MFC for Candida glabrata by Alamar blue method; assay type: functional

Structure (SMILES)	MFC (Cryptococcus neoformans [12]) [µg/mL]	MIC (Cryptococcus neoformans [12]) [µg/mL]	IC50 (Nakaseomyces glabratus [14]) [µg/mL]	MFC (Nakaseomyces glabratus [14])	MIC (Nakaseomyces glabratus [14])	IC50 (Pichia kudriavzevii [15]) [µg/mL]	MFC (Pichia kudriavzevii [15]) [µg/mL]	MIC (Pichia kudriavzevii [15]) [µg/mL]	IC50 (Candida albicans) [µg/mL]	MFC (Candida albicans)	MIC (Candida albicans)	IC50 [22] [µg/mL]	MBC [22] [µg/mL]	MIC [22] [µg/mL]	IC50 (Staphylococcus aureus [23]) [µg/mL]	MBC (Staphylococcus aureus [23]) [µg/mL]	MIC (Staphylococcus aureus [23]) [µg/mL]	MBC (Staphylococcus aureus [24]) [µg/mL]	MFC (Aspergillus fumigatus) [µg/mL]	MIC (Aspergillus fumigatus) [µg/mL]	further results
C[n+]1c2ccccc2cc2[n-]c3ccccc3c21 [CRYPTOLEPINE]	> 25	12.5 (≈ 53.8 µM)	–	–	–	–	–	–	–	–	–	–	–	–	–	–	–	–	–	–	Activity (Saccharomyces cerevisiae [1]): 29%; Activity (Saccharomyces cerevisiae [2]): Active; Activity (Saccharomyces cerevisiae [3]): Active; Activity (Saccharomyces cerevisiae [4]): Active; Activity (Saccharomyces cerevisiae [5]): Active; Activity (Saccharomyces cerevisiae [6]): Active; Activity (Saccharomyces cerevisiae [7]): inactive; Activity (Saccharomyces cerevisiae [8]): inactive; fold change (FC) (Saccharomyces cerevisiae [9]): 1.7; fold change (FC) (Saccharomyces cerevisiae [10]): 3.5; selectivity ratio [11]: < 0.13
OC(Cn1cncn1)(Cn1cncn1)c1ccc(F)cc1F [FLUCONAZOLE]	13 (≈ 42.4 µM)	6.3 (≈ 20.6 µM)	27 (≈ 88.2 µM)	inactive	inactive	27 (≈ 88.2 µM)	50 (≈ 163 µM)	50 (≈ 163 µM)	0.12 (≈ 0.392 µM)	inactive	inactive	–	–	–	–	–	–	–	–	–	Activity (Nakaseomyces glabratus [13]): inactive; Activity (Vero): Non-toxic; IC50 (Cryptococcus neoformans [12]): 0.21 µg/mL (≈ 0.686 µM)
Clc1ccc(CSc2cc3ccccc3[n+](CCCCCC3CCCCC3)c2)cc1.[I-]	0.08	0.08	0.44	1.3 µg/mL	1.3 µg/mL	0.07	0.16	0.16	0.33	0.63 µg/mL	0.63 µg/mL	1.6	2.5	2.5	0.06	0.31	0.16	0.31	1.3	1.3	fold change (FC) (Saccharomyces cerevisiae [16]): 7.5; fold change (FC) (Saccharomyces cerevisiae [9]): 10; fold change (FC) (Saccharomyces cerevisiae [17]): 1.1; fold change (FC) (Saccharomyces cerevisiae [10]): 2.9; Activity (Saccharomyces cerevisiae [18]): 31%; Ratio IC50 (Pichia kudriavzevii [19]): 310; Ratio IC50 (Pichia kudriavzevii [20]): 3; Ratio IC50 (Cryptococcus neoformans [21]): 4; MIC (Staphylococcus aureus [24]): 0.16 µg/mL; IC50 (Staphylococcus aureus [24]): 0.05 µg/mL; selectivity ratio [25]: 26; CC50 at 48 h [26]: 1.3 µg/mL; IC50 (Aspergillus fumigatus): 0.69 µg/mL
C[C@@H]1[C@H](O)[C@@H](C)/C=C/C=C/C=C/C=C/C=C/C=C/C=C/[C@H](O[C@@H]2O[C@H](C)[C@@H](O)[C@H](N)[C@@H]2O)C[C@@H]2O[C@](O)(C[C@@H](O)C[C@@H](O)[C@H](O)CC[C@@H](O)C[C@@H](O)CC(=O)O[C@H]1C)C[C@H](O)[C@H]2C(=O)O [AMPHOTERICIN B]	0.63 (≈ 0.682 µM)	0.63 (≈ 0.682 µM)	0.22 (≈ 0.238 µM)	1.3 µg/mL (≈ 1.41 µM)	0.63 µg/mL (≈ 0.682 µM)	0.22 (≈ 0.238 µM)	1.3 (≈ 1.41 µM)	0.62 (≈ 0.671 µM)	–	1.3 µg/mL (≈ 1.41 µM)	0.62 µg/mL (≈ 0.671 µM)	–	–	–	–	–	–	–	5 (≈ 5.41 µM)	1.3 (≈ 1.41 µM)	IC50 (Cryptococcus neoformans [12]): 0.2 µg/mL (≈ 0.216 µM); selectivity ratio (in vitro): 38
COc1cccc2c1C(=O)c1c(O)c3c(c(O)c1C2=O)C[C@@](O)(C(=O)CO)C[C@@H]3O[C@H]1C[C@H](N)[C@H](O)[C@H](C)O1 [DOXORUBICIN]	–	–	–	–	–	–	–	–	–	–	–	–	–	–	–	–	–	–	–	–	fold change (FC) (Saccharomyces cerevisiae [10]): >100
Cc1cccc(CSc2cc3ccccc3[n+](CCCCCC3CCCCC3)c2)c1.[I-]	0.63	0.63	3.3	10 µg/mL	5 µg/mL	0.67	2.5	2.5	2	5 µg/mL	5 µg/mL	7.2	10	10	0.72	2.5	1.3	2.5	10	10	MIC (Staphylococcus aureus [24]): 1.3 µg/mL; IC50 (Staphylococcus aureus [24]): 0.64 µg/mL; CC50 at 48 h [26]: 5 µg/mL; IC50 (Aspergillus fumigatus): 5.8 µg/mL
Cc1ccc(CSc2cc3ccccc3[n+](CCCCCC3CCCCC3)c2)cc1.[I-]	0.31	0.31	3.1	5 µg/mL	5 µg/mL	0.27	1.3	1.3	1.4	5 µg/mL	2.5 µg/mL	7.5	10	10	0.49	2.5	1.3	2.5	10	10	MIC (Staphylococcus aureus [24]): 0.63 µg/mL; IC50 (Staphylococcus aureus [24]): 0.39 µg/mL; CC50 at 48 h [26]: 6.8 µg/mL; IC50 (Aspergillus fumigatus): 4.5 µg/mL
[I-].c1ccc2cc(Sc3cc4ccccc4[n+](CCCCCC4CCCCC4)c3)ccc2c1	0.16	0.16	0.87	2.5 µg/mL	2.5 µg/mL	0.09	0.63	0.63	0.42	2.5 µg/mL	1.3 µg/mL	4.2	10	5	0.35	2.5	0.63	2.5	2.5	2.5	Ratio (Nakaseomyces glabratus [27]): 79; Ratio (Pichia kudriavzevii [19]): 79; MIC (Staphylococcus aureus [24]): 0.63 µg/mL; IC50 (Staphylococcus aureus [24]): 0.34 µg/mL; selectivity ratio [25]: > 111; IC50 (Aspergillus fumigatus): 1.2 µg/mL; IC50 (Cryptococcus neoformans [12]): 0.09 µg/mL
